Measurements reported in patent US20200247761A1, “SULFONAMIDE OR AMIDE COMPOUNDS, COMPOSITIONS AND METHODS FOR THE PROPHYLAXIS AND/OR TREATMENT OF AUTOIMMUNE, INFLAMMATION OR INFECTION RELATED DISORDERS” (TAIWANJ PHARMACEUTICALS CO., LTD, priority 2017, published 2020).
Where two headings read alike, the source gives them in different places.

Tests used:
Format in all cases: cell-based
[1] = molecular target: T1, Toll-like receptor 4 (TLR4) (Homo sapiens, UniProt O00206); experiment: TLR4 activity: NF-κB-inducible SEAP reporter in LPS-stimulated TLR4-expressing HEK293 cells; details: for inhibition at 10 µM: Test Con. 10 μM, LPS 10 ng/ml, 16-24 hours, HEK293 cells expressing TLR4, read-out: TLR-4 inhibition (%) mean; for activity towards TLR-4 (in words): summary of Table 1 (10, 20 or 100 μM)
T1 construct: expressed in transfected cells; host or cells: HEK293 cells engineered to express TLR4
T1 sequence (O00206 24-839, species assumed): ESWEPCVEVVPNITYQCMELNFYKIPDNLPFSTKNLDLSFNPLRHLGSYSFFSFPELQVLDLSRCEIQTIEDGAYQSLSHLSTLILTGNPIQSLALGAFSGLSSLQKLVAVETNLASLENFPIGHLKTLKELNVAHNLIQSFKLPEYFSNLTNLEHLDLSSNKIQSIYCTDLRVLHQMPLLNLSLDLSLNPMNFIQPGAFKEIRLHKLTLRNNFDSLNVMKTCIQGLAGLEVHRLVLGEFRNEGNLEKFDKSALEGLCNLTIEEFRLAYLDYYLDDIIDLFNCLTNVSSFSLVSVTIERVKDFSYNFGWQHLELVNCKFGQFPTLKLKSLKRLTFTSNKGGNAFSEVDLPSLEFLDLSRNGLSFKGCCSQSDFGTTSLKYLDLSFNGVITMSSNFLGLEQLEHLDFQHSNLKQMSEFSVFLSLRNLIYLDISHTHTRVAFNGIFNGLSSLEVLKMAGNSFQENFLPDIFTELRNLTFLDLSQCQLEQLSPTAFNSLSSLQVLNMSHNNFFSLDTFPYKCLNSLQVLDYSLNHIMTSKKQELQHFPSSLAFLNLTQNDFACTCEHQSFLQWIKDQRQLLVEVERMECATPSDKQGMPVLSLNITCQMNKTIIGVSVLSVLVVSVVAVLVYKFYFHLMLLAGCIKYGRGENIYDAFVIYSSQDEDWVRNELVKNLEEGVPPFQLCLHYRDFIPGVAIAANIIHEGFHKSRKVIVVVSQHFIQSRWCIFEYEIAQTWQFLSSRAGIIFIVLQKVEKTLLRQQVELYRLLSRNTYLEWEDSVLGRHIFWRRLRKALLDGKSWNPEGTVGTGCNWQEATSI
T1 sequence (Q9Y6Y9 17-160 partner limits assumed, species assumed): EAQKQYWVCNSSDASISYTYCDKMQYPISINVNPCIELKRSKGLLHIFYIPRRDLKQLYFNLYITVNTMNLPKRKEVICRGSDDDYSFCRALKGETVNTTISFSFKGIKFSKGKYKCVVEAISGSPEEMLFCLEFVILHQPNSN
Procedure: Stimulation of the Toll-like receptor 4 (TLR4) was determined by assessing activation of the transcription factor NF-κB in HEK293 cells that were engineered to express TLR4. Assessment of TLR4 stimulation was based on the use of an NE-κB-inducible secreted alkaline phosphatase (SEAP) reporter system in which the SEAP reporter was under the control of a promoter inducible by NF-κB. Thus, the degree of activation of TLR4 can be indirectly quantified spectrophotometrically by measuring the amount of the SEAP reporter that is produced.
The TLR4-expressing cells were plated in HEK-Blue Detection (Invivogen, San Diego, Calif.) medium in a 96-well plate (25,000-50,000 cells/well). The cells were stimulated with lipopolysaccharides (LPS) alone or in combination with the compound of Example 1. Cell culture without LPS and the compound of Example 1 was defined as baseline control. To test whether the compound of Example 1 could block that activation of the TLR4, the cells were treated with the designated compound (10, 20 or 100 μM) and LPS (final conc. 10 ng/ml/well). After an incubation period (16-24 hours) at 37° C. in a CO2 incubator, the signals of individual samples in 96-well plates were detected at O.D.650 nm with a Molecular Devices SpectraMax i3 Imaging Cytometer. The TLR4 activity was expressed in percentage of LPS alone-stimulated cells minus baseline control.

HEK293 cells = experiment: Cell viability (MTT) of the TLR4-expressing HEK293 cells; details: Test Con. 10 μM, percentage of viable LPS-stimulated cells
Procedure: (§1) RAW264.7 cells (1.6×10^5 cells/well) or HEK 293 cells (2.5-5.0×10^4 cells/well) were seeded in 96-well plate overnight and treated with different compounds for 16-24 hours. Cells' growth were determined by MTT-based colorimetric assays. Viability of the test cells treated with vehicle (0.5% DMSO) only was defined as 100% viable. Survival of cells after treatment with DETDs was calculated using the following formula: viable cell number (%)=OD570 (treated cell culture)/OD570 (vehicle control)×100.
(§2) The cell viability assay was performed by the MTT method. Cells were incubated with 45 μl of 5 mg/ml MTT for 1 hour at 37° C., and 150 μl of DMSO was added at the end of culture to dissolve the crystals. The signals of individual samples in 96-well plates were detected at O.D.570 nm with a Molecular Devices SpectraMax i3 Imaging Cytometer. Cell viability was expressed in percentage of viable LPS-stimulated cells.

[2] = system: mTNF-α secretion from LPS-stimulated RAW264.7 monocytes; experiment: LPS induced mTNF-α release from RAW264.7 cells (ELISA); details: Mus musculus
Procedure: To confirm whether the inhibitory effect of the selected compounds of example 2.1 (i.e., Compounds 12, 15, 19, 20, 22, 24, 28, 30, 32, 34, 36, 38, 40, 42, 44, 45, 49, 50, 52 and 70) translates to anti-inflammation, they were further tested to see if any of them may suppress mTNF-α secretion from lipopolysaccharide (LPS)-stimulated RAW264.7 monocytes.
To this purpose, RAW264.7 cells were seeded at 1.6×10^5 cells/well into 96-well culture plates. Test compounds (i.e., Compounds 12, 15, 19, 20, 22, 24, 28, 30, 32, 34, 36, 38, 40, 42, 44, 45, 49, 50, 52 and 70, respectively at 10 μM) were added into the culture plates in triplicate and co-cultured at 37° C. in 5% CO2 for 30 minutes. LPS (final conc. 10 ng/ml/well) was then added into the culture plates and the cells were incubated for another 4 hours. At the end of culture, the cultured media were harvested for mTNF-α quantification by ELISA with commercial assay kits (R&D Systems, Minneapolis, Minn.) following the manufacturer's protocol. Signals of the individual samples in 96-well plates were detected at O.D.450 nm/570 nm with a Molecular Devices SpectraMax i3 Imaging Cytometer. The mTNF-α activity was expressed in percentage of viable LPS-stimulated cells without test compound treatment.

RAW264.7 cells = experiment: Cell viability (MTT) of RAW264.7 cells; details: for toxic activity toward RAW264.7 cells (in words): Table 2, 10 μM; for Cell Viability (%) mean: Test Con. 10 μM, MTT, RAW264.7 cells, percentage of viable LPS-stimulated cells
Procedure: as §1
as §2, with “method, in which cells” for “method. Cells”

[3] = RAW264.7, Table 2, 10 μM, read-out: inhibition of LPS induced mTNF-α release from RAW264.7 cells
[4] = Test Con. 10 μM, LPS 10 ng/ml, 4 hours, RAW264.7 cells, read-out: mTNF-α inhibition (%) mean

Row | Compound | inhibition at 10 µM [1] | activity towards TLR-4 (in words) [1] | Cell Viability (%) mean (HEK293 cells) | inhibition at 10 µM [2, 3] | inhibition at 10 µM [2, 4] | toxic activity toward RAW264.7 cells (in words) (RAW264.7 cells) | Cell Viability (%) mean (RAW264.7 cells)
1 | C=CC(=O)N(c1ccc(F)cc1Cl)S(=O)(=O)c1ccc(F)cc1Cl [Compound 30] | 94.8% | strong antagonist | 94.0% | 85 to 100% | 82.9% | negligible to no toxic activity | 99.7%
2 | C=CC(=O)N(c1ccc(F)cc1Cl)S(=O)(=O)c1ccccc1S(C)(=O)=O [Compound 32] | 100% | strong antagonist | 84.5% | 85 to 100% | 97.5% |  | 48.3%
3 | C=CC(=O)N(c1ccc(F)cc1Cl)S(=O)(=O)c1c(C)noc1C [Compound 34] | 100% | strong antagonist | 63.0% | 85 to 100% | 98.5% |  | 53.9%
4 | C=CC(=O)N(c1ccc(F)cc1Cl)S(=O)(=O)Cc1ccccc1 [Compound 36] | 67.3% | moderate inhibitory activity | 107.0% | ~13% | 13% | negligible to no toxic activity | 102.8%
5 | C=CC(=O)N(c1ccc(F)cc1Cl)S(=O)(=O)N1CCOC1=O [Compound 38] | 100% | strong antagonist | 61.6% | 85 to 100% | 97.1% |  | 48.0%
6 | C=CC(=O)N(C1CC1)S(=O)(=O)c1ccc(F)cc1Cl [Compound 40] | 100% | strong antagonist | 85.5% | 85 to 100% | 99.7% | negligible to no toxic activity | 93.5%
7 | C=CC(=O)N(c1ccc(F)cc1Cl)S(=O)(=O)c1c(C)oc(C)c1C(=O)OC [Compound 42] | 100% | strong antagonist | 72.4% | 85 to 100% | 98.6% |  | 27.8%
8 | C=CC(=O)Nc1ccccc1S(=O)(=O)Nc1ccc(F)cc1Cl [Compound 44] | 100% | strong antagonist | 81.4% | 85 to 100% | 94.1% | negligible to no toxic activity | 96.1%
9 | C=CC(=O)N1CCCC[C@H]1C(=O)N(C)c1ccc(F)cc1Cl [Compound 57] | 17.5% | mild or negligible activity | 95.9% |  |  |  | 
10 | C=CC(=O)N1CCC[C@H]1C(=O)Nc1ccc(F)cc1Cl [Compound 61] | 3.7% | mild or negligible activity | 93.4% |  |  |  | 
11 | C=CC(=O)N1CCC[C@@H]1C(=O)Nc1ccc(F)cc1Cl [Compound 65] | 15.8% | mild or negligible activity | 100.5% |  |  |  | 
